# Measured values reported in patent US9976141B2, “Compositions and methods for inhibiting gene expression of Hif2alpha” (Arrowhead Madison Inc., priority 2015, dated 2018).
# Test system: human (tumor) Hif2α (EPAS1) mRNA
# Assay: Hif2α knockdown in orthotopic RCC tumor bearing mice, single injection of RNAi trigger-delivery polymer conjugate, RT-qPCR (Table 7)
# Format: in vivo
# Conditions: RNAi trigger 80 μg, polymer 126 400 μg; single tail vein injection; relative to isotonic glucose
# Summary of the method: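 Female athymic nude mice carried orthotopic A498-SEAP ccRCC kidney tumours, used 5–6 weeks after implantation. They received one tail-vein injection of RGD-targeted Hif2α RNAi trigger–polymer conjugate or isotonic glucose. Tumour Hif2α mRNA was measured by TaqMan RT-qPCR normalised to CycA (ΔΔCT) and expressed relative to glucose-treated mice.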
row,Substance,Relative Expression day 4 (Hif2α mRNA in kidney tumor)
1,"AD01256 (antisense TUUCAUGAAAUCGUUACGUTT; sense ACGUAACGAUUUCAUGAAAT; Hif2alpha RNAi agent antisense strand; modified_base 2,4,6,10,12,14,16,18 /mod_base = “2′-deoxy-2′-fluoro corresponding nucleoside”; modified_base 3,5,7,9,11,13,15,17,19 /mod_base = “2′-O-methyl corresponding nucleoside”; modified_base 8 /mod_base = “2′-3′ seco corresponding nucleotide”; modified_base 21 /mod_base = “5′-phosphorothioate corresponding nucleotide”; Hif2alpha RNAi agent sense strand; modified_base 1,3,5,7,9,11,13,15,17,19 /mod_base = “2′-deoxy-2′-fluoro corresponding nucleoside”; modified_base 2,4,6,8,10,12,14,16,18 /mod_base = “2′-O-methyl corresponding nucleoside”; modified_b)",0.22
2,"AD01257 (antisense TUUCAUGAAAUCGUUACGUTT; sense ACGUAACGAUUUCAUGAAAT; Hif2alpha RNAi agent antisense strand; modified_base 2,4,6,8,10,12,14,16,18 /mod_base = “2′-deoxy-2′-fluoro corresponding nucleoside”; modified_base 3,5,7,11,13,15,17,19 /mod_base = “2′-O-methyl corresponding nucleoside”; modified_base 9 /mod_base = “2′-3′ seco corresponding nucleotide”; modified_base 21 /mod_base = “5′-phosphorothioate corresponding nucleotide”; Hif2alpha RNAi agent sense strand; modified_base 1,3,5,7,9,11,13,15,17,19 /mod_base = “2′-deoxy-2′-fluoro corresponding nucleoside”; modified_base 2,4,6,8,10,12,14,16,18 /mod_base = “2′-O-methyl corresponding nucleoside”; modified_b)",0.24
3,"AD01258 (antisense TUUCAUGAAAUCGUUACGUTT; sense ACGUAACGAUUUCAUGAAAT; Hif2alpha RNAi agent antisense strand; modified_base 2,4,6,8,10,12,14,16,18 /mod_base = “2′-deoxy-2′-fluoro corresponding nucleoside”; modified_base 3,5,7,9,11,13,17,19 /mod_base = “2′-O-methyl corresponding nucleoside”; modified_base 15 /mod_base = “2′-3′ seco corresponding nucleotide”; modified_base 21 /mod_base = “5′-phosphorothioate corresponding nucleotide”; Hif2alpha RNAi agent sense strand; modified_base 1,3,5,7,9,11,13,15,17,19 /mod_base = “2′-deoxy-2′-fluoro corresponding nucleoside”; modified_base 2,4,6,8,10,12,14,16,18 /mod_base = “2′-O-methyl corresponding nucleoside”; modified_b)",0.38
4,"AD01291 (antisense TUUCAUGAAAUCGUUACGUUGGC; sense CAACGUAACGAUUUCAUGAAA; Hif2alpha RNAi agent antisense strand; modified_base 2,4,6,8,10,14,16,18,20 /mod_base = “2′-deoxy-2′-fluoro corresponding nucleoside”; modified_base 3,5,7,9,11,12,13,15,17,19,21,22,23 /mod_base = “2′-O-methyl corresponding nucleoside”; modified_base 2,3,22,23 /mod_base = “5′-phosphorothioate corresponding nucleotide”; Hif2alpha RNAi agent sense strand; modified_base 1,3,5,7,9,10,11,13,15,17,19,21 /mod_base = “2′-deoxy-2′-fluoro corresponding nucleoside”; modified_base 2,4,6,8,12,14,16,18,20 /mod_base = “2′-O-methyl corresponding nucleoside”; modified_base 2,3 /mod_base = “5′-phosphorothioate)",0.19
5,"AD01292 (antisense TUUCAUGAAAUCGUUACGUUGGC; sense CAACGUAACGAUUUCAUGAAA; Hif2alpha RNAi agent antisense strand; modified_base 2,4,6,8,10,14,16,18,20 /mod_base = “2′-deoxy-2′-fluoro corresponding nucleoside”; modified_base 3,5,7,9,11,12,13,15,17,19,21,22,23 /mod_base = “2′-O-methyl corresponding nucleoside”; modified_base 2,3,22,23 /mod_base = “5′-phosphorothioate corresponding nucleotide”; Hif2alpha RNAi agent sense strand; modified_base 3,5,7,9,10,11,13,15,17,19,21 /mod_base = “2′-deoxy-2′-fluoro corresponding nucleoside”; modified_base 2,4,6,8,12,14,16,18,20 /mod_base = “2′-O-methyl corresponding nucleoside”; modified_base 1 /mod_base = “2′-3′ seco correspondin)",0.27
6,"AD01293 (antisense TUUCAUGAAAUCGUUACGUUGGCUGU; sense UAUAUCAACGUAACGAUUUCAUGAAA; Hif2alpha RNAi agent antisense strand; modified_base 25 modified base = “2′-hydroxy corresponding nucleoside”; modified_base 2,4,6,8,10,14,16,18,20 /mod_base = “2′-deoxy-2′-fluoro corresponding nucleoside”; modified_base 3,5,7,9,11,12,13,15,17,19,21,22,23,24,26 /mod_base = “2′-O-methyl corresponding nucleoside”; modified_base 2,3,23,24 /mod_base = “5′-phosphorothioate corresponding nucleotide”; Hif2alpha RNAi agent sense strand; modified_base 2,4 modified base = “2′-hydroxy corresponding nucleoside”; modified_base 6,8,10,12,14,15,16,18,20,22,24,26 /mod_base = “2′-deoxy-2′-fluoro correspondin)",0.20

# Same assay, conditions: RNAi trigger 115 μg, polymer 100A 375 μg; single tail vein injection; relative to isotonic glucose
row,Substance,Relative Expression day 4 (Hif2α mRNA in kidney tumor)
1,"AD01288 (antisense TUUCAUGAAAUCGUUACGUTT; sense ACGUAACGAUUUCAUGAAAT; Hif2alpha RNAi agent antisense strand; modified_base 2,4,6,8,10,14,16,18 /mod_base = “2′-deoxy-2′-fluoro corresponding nucleoside”; modified_base 3,5,7,9,11,12,13,15,17,19 /mod_base = “2′-O-methyl corresponding nucleoside”; modified_base 21 /mod_base = “5′-phosphorothioate corresponding nucleotide”; Hif2alpha RNAi agent sense strand; modified_base 1,3,5,7,8,9,11,13,15,17,19 /mod_base = “2′-deoxy-2′-fluoro corresponding nucleoside”; modified_base 2,4,6,10,12,14,16,18 /mod_base = “2′-O-methyl corresponding nucleoside”; modified_base 20 /mod_base = “3′-3′-linked nucleotide”; modified_base 1 /mo)",0.32
2,"AD01289 (antisense TUUCAUGAAAUCGUUACGUTT; sense ACGUAACGAUUUCAUGAAAT; Hif2alpha RNAi agent antisense strand; modified_base 2,4,6,8,10,12,14,16,18 /mod_base = “2′-deoxy-2′-fluoro corresponding nucleoside”; modified_base 3,5,7,9,11,13,15,17,19 /mod_base = “2′-O-methyl corresponding nucleoside”; modified_base 21 /mod_base = “5′-phosphorothioate corresponding nucleotide”; Hif2alpha RNAi agent sense strand; modified_base 1,3,5,6,7,9,11,13,15,17,19 /mod_base = “2′-deoxy-2′-fluoro corresponding nucleoside”; modified_base 2,4,8,10,12,14,16,18 /mod_base = “2′-O-methyl corresponding nucleoside”; modified_base 20 /mod_base = “3′-3′-linked nucleotide”; modified_base 1 /mo)",0.28
3,"AD01290 (antisense TUUCAUGAAAUCGUUACGUTT; sense ACGUAACGAUUUCAUGAAAT; Hif2alpha RNAi agent antisense strand; modified_base 2,4,6,8,10,12,14,16,18 /mod_base = “2′-deoxy-2′-fluoro corresponding nucleoside”; modified_base 3,5,7,9,11,13,15,17,19 /mod_base = “2′-O-methyl corresponding nucleoside”; modified_base 21 /mod_base = “5′-phosphorothioate corresponding nucleotide”; Hif2alpha RNAi agent sense strand; modified_base 1,3,7,9,11,13,15,17,19 /mod_base = “2′-deoxy-2′-fluoro corresponding nucleoside”; modified_base 2,4,5,6,8,10,12,14,16,18 /mod_base = “2′-O-methyl corresponding nucleoside”; modified_base 20 /mod_base = “3′-3′-linked nucleotide”; modified_base 1 /mo)",0.39
